This is an account of results in patent publication US4389343A, “Immunopotentiating peptides from thymus” (Hoffmann-La Roche Inc., priority 1981, dated 1983).

Where no end group is shown, it is not given here.

In data set [1] the test system is Candida albicans ATCC 10231. As to the kind of experiment: protective activity against opportunistic infections in immunosuppressed mice. The class given is in vivo. The conditions noted are these: female ddY mice infected with Candida albicans 24 hours after last treatment. Here is the method: The compounds of formula I were tested for protective activity against opportunistic infections in immunosuppressed mice. Female ddY mice (6 weeks old) weighing about 25 g were pretreated daily for eight days with 5-fluorouracil (5-FU) (25 mg/kg/day, i.p.) and with thymosin α1or with compounds of formula I (i.p.) at varying dosages. The mice were then infected with Candida albicans ATCC 10231 (1×10^5 cells or more) at 24 hours after the last treatment. One control group was administered 5-FU and saline solution and a second control group received neither 5-FU nor a thymic polypeptide prior to infection with Candida albicans.

Data set [2] is described as follows: isoelectric point by preparative isoelectric focusing. The class given is physicochemical. Here is the method:
It is preferred that the compound of formula II be separated conventionally from Thymosin Fraction 5 using preparative isoelectric focusing, with the proteins recovered therefrom being purified by HPLC. By such a procedure, for example, 1.2 grams of Thymosin Fraction 5 provided 16 mg of thymosin α1, 16 mg of thymosin β4 and 1 mg of the compound of formula II. The isoelectric point for the compound of formula II was pH 4.62.
Any reverse phase hydrophobic resin may be employed in a conventional manner in the HPLC isolation. Among such resins there are included, for example, a hydrocarbon (C8 to C18) on any inert matrix such as silica gel, glass, polysaccharides and the like, which matrix is inert to the eluting agent being employed. The preferred resin is a straight chain C18 hydrocarbon bonded to silica gel or glass beads. […]
A sample of thymosin Fraction 5 (1.2 g) was dissolved in 100 ml of 2% ampholine for separation in the pH range 4-6 and filtered through a 0.45 μm molecular pore filter. […] The focused gel was cut with a grid into 30 sections, each of which was eluted on a small column with 5 ml of H2 O. The pH of eluate was determined at 0° C. […] Fractions (0.7 ml) were collected every 2 min and aliquots (5 μl of a 1:25 dilution) of each aliquot analyzed by direct injection into the borate buffer line of the fluorescamine detector, because the automatic column monitoring was off-scale.

Setting [3] is: 4 μg/kg/day i.p. daily for eight days with 5-FU 25 mg/kg/day i.p.
Setting [4] is: 40 μg/kg/day i.p. daily for eight days with 5-FU 25 mg/kg/day i.p.
Setting [5] is: 0.4 μg/kg/day i.p. daily for eight days with 5-FU 25 mg/kg/day i.p.

In the case of “Thymosin α1: acidic peptide containing 28 amino acid residues isolated from Thymosin Fraction 5, U.S. Pat. No. 4,079,127 (SDAAVDTSSEITTKDLKEKKEVVEEAEN; ends and bridges not checked; UniProt P01252 2-29, looked up)”, the “Survivors at Day 8” value in data set [1] (setting [3]) and in data set [1] (setting [4]) was 7/10 throughout. Also, the “Survivors at Day 15” value in data set [1] (setting [3]) is reported as 6/10; in data set [1] (setting [4]), 7/10.

With “Thymosin β8: polypeptide isolated from calf thymus Fraction 5, 4,518 daltons, 39 amino acid residues, NH2-terminus acetyl alanine (ADKPDLGEINSFDKAKLKKTETQEKNTLPTKETIEQEKQ; thymosin beta-8 N-terminal acetyl; UniProt P21752 2-40, looked up, fragment)”, in data set [2], the isoelectric point is recorded as 4.62 pH.

Take “Thymosin β4: peptide isolated from Thymosin Fraction 5 containing 44 amino acid residues”: the “Survivors at Day 8” value in data set [1] (setting [5]) is 7/10; in data set [1] (setting [3]), 5/10; in data set [1] (setting [4]) it was 1/10. Further, the “Survivors at Day 15” value in data set [1] (setting [5]) was 6/10; in data set [1] (setting [3]), 5/10; in data set [1] (setting [4]) it was 1/10.

“Thymosin β9: polypeptide from fresh frozen calf thymus, identical to thymosin β8 plus --Ala--LysOH at the COOH-terminus, 4,717 daltons, 41 amino acids (ADKPDLGEINSFDKAKLKKTETQEKNTLPTKETIEQEKQAK; not fully specified; Thymosin beta-9; UniProt P21752 2-42, looked up)” registered an isoelectric point in data set [2] of 5.14 pH.
